In ChEMBL document CHEMBL1909046, “DrugMatrix in vitro pharmacology data”:

Legend:
[1] = DRUGMATRIX: beta-Lactamase enzyme inhibition (substrate: Nitrocefin); parameters: species or system Bacillus cereus; settings: Not Active = under 50% inhibition at 10 µM
[2] = target: T1, Muscarinic acetylcholine receptor M4 (Homo sapiens, UniProt P08173); format: cell membranes, CHO-K1, Membrane; also: in other assays of this panel Not Active means under 50% inhibition at 10 µM
T1 sequence (P08173 whole entry): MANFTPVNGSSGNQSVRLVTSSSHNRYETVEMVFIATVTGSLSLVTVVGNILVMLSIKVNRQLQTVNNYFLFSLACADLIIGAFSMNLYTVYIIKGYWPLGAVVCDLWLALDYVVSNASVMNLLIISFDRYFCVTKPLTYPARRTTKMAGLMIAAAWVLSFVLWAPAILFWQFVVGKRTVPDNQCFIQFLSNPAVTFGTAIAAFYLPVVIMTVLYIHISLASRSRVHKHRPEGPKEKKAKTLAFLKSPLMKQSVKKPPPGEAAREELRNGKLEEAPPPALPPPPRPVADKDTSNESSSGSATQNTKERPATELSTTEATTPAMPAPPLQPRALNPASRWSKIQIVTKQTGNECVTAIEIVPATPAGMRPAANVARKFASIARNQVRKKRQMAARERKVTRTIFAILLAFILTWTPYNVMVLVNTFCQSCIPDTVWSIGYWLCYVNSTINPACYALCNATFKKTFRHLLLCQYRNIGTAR

[3] = target: Nitric oxide synthase 1 (Rattus norvegicus, UniProt P29476); format: tissue-based, Cerebellum; also: in other assays of this panel Not Active means under 50% inhibition at 10 µM
[4] = DRUGMATRIX: Phosphodiesterase PDE3 enzyme inhibition (substrate: [3H]cAMP + cAMP); format: tissue-based, Homo sapiens; settings: platelet, Not Active = under 50% inhibition at 10 µM
[5] = DRUGMATRIX: Platelet-Derived Growth Factor (PDGF) radioligand binding (ligand: [125I] PDGF); format: cell-based; settings: nih3t3; Not Active = under 50% inhibition at 10 µM
[6] = DRUGMATRIX: Potassium Channel [KATP] radioligand binding (ligand: [3H] Glyburide); format: cell membranes, Membrane; settings: hit-t15; Not Active = under 50% inhibition at 10 µM
[7] = target: T2, Cathepsin G (Homo sapiens, UniProt P08311); assay: biochemical; format: tissue-based, Neutrophil;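 also: inhibition of Cathepsin G enzyme activity, tested on an AMC-conjugated peptide substrate; in other assays of this panel Not Active means under 50% inhibition at 10 µM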
T2 sequence (P08311 whole entry): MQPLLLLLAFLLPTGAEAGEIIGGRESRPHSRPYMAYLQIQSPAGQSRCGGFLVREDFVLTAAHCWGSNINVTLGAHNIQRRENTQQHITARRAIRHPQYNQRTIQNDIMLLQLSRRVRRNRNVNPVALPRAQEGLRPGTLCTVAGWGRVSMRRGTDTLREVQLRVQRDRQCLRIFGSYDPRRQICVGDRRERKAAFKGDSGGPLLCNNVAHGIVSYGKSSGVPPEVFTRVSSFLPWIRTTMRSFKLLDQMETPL

Sequence of Nitric oxide synthase 1 (P29476 whole entry): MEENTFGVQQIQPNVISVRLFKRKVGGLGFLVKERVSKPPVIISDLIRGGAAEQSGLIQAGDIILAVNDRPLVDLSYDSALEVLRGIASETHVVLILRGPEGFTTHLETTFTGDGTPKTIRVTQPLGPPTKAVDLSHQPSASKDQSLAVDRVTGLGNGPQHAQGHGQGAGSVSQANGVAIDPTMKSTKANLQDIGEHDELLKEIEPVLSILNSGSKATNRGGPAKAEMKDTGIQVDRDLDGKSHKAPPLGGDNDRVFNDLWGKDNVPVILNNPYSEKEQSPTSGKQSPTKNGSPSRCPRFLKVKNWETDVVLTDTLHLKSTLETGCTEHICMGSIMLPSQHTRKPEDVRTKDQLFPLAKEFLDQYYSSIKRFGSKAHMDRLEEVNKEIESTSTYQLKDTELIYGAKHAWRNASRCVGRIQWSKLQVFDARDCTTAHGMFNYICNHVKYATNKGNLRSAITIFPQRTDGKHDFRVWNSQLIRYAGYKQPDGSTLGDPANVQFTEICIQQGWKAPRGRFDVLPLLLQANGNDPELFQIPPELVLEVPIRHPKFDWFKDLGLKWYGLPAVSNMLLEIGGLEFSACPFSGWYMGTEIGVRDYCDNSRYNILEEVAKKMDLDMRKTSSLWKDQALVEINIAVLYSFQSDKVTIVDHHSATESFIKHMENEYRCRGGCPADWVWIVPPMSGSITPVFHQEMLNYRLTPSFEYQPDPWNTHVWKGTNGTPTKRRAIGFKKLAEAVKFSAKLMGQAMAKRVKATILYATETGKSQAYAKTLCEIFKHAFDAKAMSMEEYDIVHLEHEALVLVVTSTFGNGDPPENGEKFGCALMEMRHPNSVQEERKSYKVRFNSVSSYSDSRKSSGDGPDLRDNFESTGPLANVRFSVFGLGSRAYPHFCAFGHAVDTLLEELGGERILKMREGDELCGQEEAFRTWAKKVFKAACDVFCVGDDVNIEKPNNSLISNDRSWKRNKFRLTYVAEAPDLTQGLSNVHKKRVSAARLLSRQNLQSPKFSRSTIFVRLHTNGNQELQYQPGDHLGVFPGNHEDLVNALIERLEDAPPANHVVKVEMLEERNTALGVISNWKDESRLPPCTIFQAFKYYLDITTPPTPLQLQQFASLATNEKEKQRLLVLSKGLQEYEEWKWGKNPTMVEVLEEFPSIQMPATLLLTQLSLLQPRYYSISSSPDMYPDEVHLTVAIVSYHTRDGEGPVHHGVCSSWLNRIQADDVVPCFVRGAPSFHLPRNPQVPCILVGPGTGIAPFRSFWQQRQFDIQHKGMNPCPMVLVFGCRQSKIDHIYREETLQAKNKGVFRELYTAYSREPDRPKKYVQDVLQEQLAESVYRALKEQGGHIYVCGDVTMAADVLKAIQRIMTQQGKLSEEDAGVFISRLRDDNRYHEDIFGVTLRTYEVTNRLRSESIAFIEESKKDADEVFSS

Row | Structure (SMILES) | IC50 [1] | Ki [1] | IC50 ([2]; cho-k1) | IC50 [3] | IC50 [4] | Ki [4] | IC50 [5] | Ki [5] | IC50 [6] | Ki [6] | IC50 ([7]; neutrophil) | IC50 ([7]; read-out: IC50) [nM] | IC50 ([2]; read-out: IC50) [nM] | Ki ([2]; read-out: Ki) [nM] | IC50 ([4]; read-out: IC50) [nM]
1 | CC#C[C@]1(O)CC[C@H]2[C@@H]3CCC4=CC(=O)CCC4=C3[C@@H](c3ccc(N(C)C)cc3)C[C@@]21C [MIFEPRISTONE] | Not Active | Not Active | Not Active | Not Active | Not Active | Not Active | Not Active | Not Active | Not Active | Not Active | Not Active | – | – | – | –
2 | CC[C@@]1(O)C(=O)OCc2c1cc1n(c2=O)Cc2cc3c(CN(C)C)c(O)ccc3nc2-1 [TOPOTECAN] | Not Active | Not Active | Not Active | Not Active | Not Active | Not Active | Not Active | Not Active | Not Active | Not Active | Not Active | – | – | – | –
3 | Nc1nc(N)c2nc(-c3ccccc3)c(N)nc2n1 | Not Active | Not Active | Not Active | Not Active | Not Active | Not Active | Not Active | Not Active | Not Active | Not Active | – | 7410 | – | – | –
4 | Cc1cc2c(s1)Nc1ccccc1N=C2N1CCN(C)CC1 [OLANZAPINE] | – | – | – | Not Active | – | – | – | – | – | – | Not Active | – | – | – | –
5 | CC[C@H](C)[C@@H](CO[C@@H](Cc1ccccc1)C(=O)N[C@@H](CCS(C)(=O)=O)C(=O)OC(C)C)NC[C@@H](N)CS | Not Active | Not Active | Not Active | Not Active | Not Active | Not Active | Not Active | Not Active | Not Active | Not Active | Not Active | – | – | – | –
6 | CO[C@@]12[C@H](COC(N)=O)C3=C(C(=O)C(C)=C(N)C3=O)N1C[C@@H]1N[C@@H]12 [MITOMYCIN] | Not Active | Not Active | Not Active | Not Active | Not Active | Not Active | Not Active | Not Active | Not Active | Not Active | Not Active | – | – | – | –
7 | CCOC(=O)C1=C(C)NC(C)=C(C(=O)OCC)C1c1ccccc1/C=C/C(=O)OC(C)(C)C [LACIDIPINE] | Not Active | Not Active | Not Active | Not Active | Not Active | Not Active | Not Active | Not Active | Not Active | Not Active | Not Active | – | – | – | –
8 | Cc1cn([C@H]2C=C[C@@H](CO)O2)c(=O)[nH]c1=O [STAVUDINE] | Not Active | Not Active | Not Active | Not Active | Not Active | Not Active | Not Active | Not Active | Not Active | Not Active | Not Active | – | – | – | –
9 | C#C[C@]1(O)CC[C@H]2[C@@H]3[C@H](C)CC4=C(CCC(=O)C4)[C@H]3CC[C@@]21C [TIBOLONE] | Not Active | Not Active | Not Active | Not Active | Not Active | Not Active | Not Active | Not Active | Not Active | Not Active | Not Active | – | – | – | –
10 | CC(O)C(=O)O (stereo not drawn) [LACTIC ACID] | Not Active | Not Active | Not Active | Not Active | Not Active | Not Active | Not Active | Not Active | Not Active | Not Active | Not Active | – | – | – | –
11 | O=C(O)c1cc(/N=N/c2ccc(S(=O)(=O)Nc3ccccn3)cc2)ccc1O [SULFASALAZINE] | Not Active | Not Active | Not Active | Not Active | Not Active | Not Active | Not Active | Not Active | Not Active | Not Active | Not Active | – | – | – | –
12 | CCN(CC)C(=S)SSC(=S)N(CC)CC | Not Active | Not Active | Not Active | Not Active | Not Active | Not Active | Not Active | Not Active | Not Active | Not Active | Not Active | – | – | – | –
13 | CNCCCC12CCC(c3ccccc31)c1ccccc12 [MAPROTILINE] | – | – | – | Not Active | – | – | – | – | – | – | Not Active | – | 413 | 58 | –
14 | Cc1ccc(Cl)c(Nc2ccccc2C(=O)O)c1Cl [MECLOFENAMIC ACID] | Not Active | Not Active | Not Active | Not Active | Not Active | Not Active | Not Active | Not Active | Not Active | Not Active | Not Active | – | – | – | –
15 | CC(C)(C)NC[C@H](O)COc1cccc2c1CCCC2=O [LEVOBUNOLOL] | Not Active | Not Active | Not Active | Not Active | Not Active | Not Active | Not Active | Not Active | Not Active | Not Active | Not Active | – | – | – | –
16 | Cc1cccc(C)c1NC(=O)C(C)N (stereo not drawn) [TOCAINIDE] | Not Active | Not Active | Not Active | Not Active | Not Active | Not Active | Not Active | Not Active | Not Active | Not Active | Not Active | – | – | – | –
17 | CCOc1cc(N)c(Cl)cc1C(=O)NCC1CN(Cc2ccc(F)cc2)CCO1 (stereo not drawn) [MOSAPRIDE] | Not Active | Not Active | Not Active | Not Active | Not Active | Not Active | Not Active | Not Active | Not Active | Not Active | Not Active | – | – | – | –
18 | Cc1cnc(NC(=O)C2=C(O)c3ccccc3S(=O)(=O)N2C)s1 [MELOXICAM] | Not Active | Not Active | Not Active | Not Active | Not Active | Not Active | Not Active | Not Active | Not Active | Not Active | Not Active | – | – | – | –
19 | O=C1CC[C@@]2(O)[C@H]3Cc4ccc(O)c5c4[C@@]2(CCN3CC2CC2)[C@H]1O5 [NALTREXONE] | Not Active | Not Active | Not Active | Not Active | Not Active | Not Active | Not Active | Not Active | Not Active | Not Active | Not Active | – | – | – | –
20 | O=C(c1ccccc1)c1ccc2n1CCC2C(=O)O (stereo not drawn) [KETOROLAC] | Not Active | Not Active | Not Active | Not Active | Not Active | Not Active | Not Active | Not Active | Not Active | Not Active | Not Active | – | – | – | –
21 | Oc1ccc(/C=C/c2cc(O)cc(O)c2)cc1 [RESVERATROL] | Not Active | Not Active | Not Active | Not Active | Not Active | Not Active | Not Active | Not Active | Not Active | Not Active | Not Active | – | – | – | –
22 | CN1C(=O)OC(C)(C)C1=O [TRIMETHADIONE] | Not Active | Not Active | Not Active | Not Active | Not Active | Not Active | Not Active | Not Active | Not Active | Not Active | Not Active | – | – | – | –
23 | Cc1[nH]c(=O)c(C#N)cc1-c1ccncc1 [MILRINONE] | Not Active | Not Active | Not Active | Not Active | – | – | Not Active | Not Active | Not Active | Not Active | Not Active | – | – | – | 958
24 | CN(C)CCC=C1c2ccccc2COc2ccccc21 [DOXEPIN] | – | – | – | Not Active | – | – | – | – | – | – | Not Active | – | – | – | –
25 | C[N+]1(C)[C@@H]2C[C@@H](OC(=O)[C@H](CO)c3ccccc3)C[C@H]1[C@@H]1O[C@@H]12.[Br-] [METHSCOPOLAMINE BROMIDE] | Not Active | Not Active | – | Not Active | Not Active | Not Active | Not Active | Not Active | Not Active | Not Active | Not Active | – | – | – | –
